From patent publication US11111238B2, “Coumarin derivatives, processes for their preparation and uses thereof for the treatment of cancer” (Lead Discovery Center GmbH, priority 2017, dated 2021) come the findings set out here.

In general, IC50 refers to the concentration that gives 50% inhibition. Lower therefore signals higher potency.

The subject of test [1] is mitochondrial transcription (7S RNA) in HeLa cells. Description: Quantitative real time-PCR assay of inhibition of mitochondrial transcription (cellular qPCR assay IMT). Format: cell-based. Conditions: Homo sapiens, 4 h compound incubation, qRT-PCR according to Example 5, activity class. How it is done:
Quantitative real-time PCR (qRT-PCR), based on the TagMan™ (Thermo Fisher Scientific, Waltham Mass.) technology, was carried out essentially as described in (Heid et al., 1996). HeLa cells were plated one day before compound treatment in RPMI medium supplemented with 10% Fetal Calf Serum and 2 mM L-glutamine. Cells were incubated with dilution series of compounds or vehicle (DMSO) for 4 h, prior to harvest and extraction of the RNA using the RNeasy Mini Kit (Qiagen, Hilden D), according to the manufacturer's instructions. RNA concentrations were measured spectroscopically, using a NanoDrop-2000 (Thermo Fisher Scientific, Waltham Mass.) and normalized prior to cDNA synthesis, using a ‘High-Capacity cDNA Reverse Transcription Kit’ (Thermo Fisher Scientific, Waltham Mass.). qRT-PCR was carried out using the ‘TaqMan Fast Advance Master Mix’ (Thermo Fisher Scientific, Waltham Mass.) on a 7500 Fast Real-Time PCR machine (Applied Biosystems, Foster City Calif.)
For these measurements, three genes were used to compare the effect of the scrutinized compounds in relation to their concentration. The POLRMT-gene was used to detect potential influences on nuclear transcription. Mitochondrial transcription in vivo was monitored by measurements 7S RNA. The TBP (TATA-box binding protein) gene was employed as the control (housekeeping gene) during qRT-PCR. The short-lived mitochondrial 7S RNA, which is not post-transcriptionally stabilized, allowed us to monitor rapid changes in mitochondrial transcription activity following compound addition. Biological triplicates were analyzed using the comparative CT Method (ΔΔCt) method (Bubner and Baldwin, 2004) and reported as Rq % values (Rq=Relative quantification=2-ΔΔCt).
On the technique in general: Quantitative PCR measures a nucleic acid by following its amplification.

Test [2] addresses mitochondrial RNA-polymerase (POLRMT) (Mus musculus, UniProt Q8BKF1). Nature of the test: Homogeneous TR-FRET assay for mitochondrial transcription activity. The class given is biochemical. Conditions: homogeneous TR-FRET assay according to Example 4; activity class. In a few lines:
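Mouse POLRMT, TFAM and TFB2M with linearized pUC-LSP template in 10 mM Tris-HCl pH 7.5, 10 mM MgCl2, 40 mM NaCl; compounds at 10 μM or serial dilution, 10 min RT preincubation. Started with 500 μM each […], 2 h RT; 407 bp RNA product detected by hybridized Eu-cryptate/ATTO647N probe TR-FRET (ex 340, em 665 nm).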

A value given as a limit tells only on which side of the number the result lay.

Chain of mitochondrial RNA-polymerase (POLRMT) (Q8BKF1 42-1207): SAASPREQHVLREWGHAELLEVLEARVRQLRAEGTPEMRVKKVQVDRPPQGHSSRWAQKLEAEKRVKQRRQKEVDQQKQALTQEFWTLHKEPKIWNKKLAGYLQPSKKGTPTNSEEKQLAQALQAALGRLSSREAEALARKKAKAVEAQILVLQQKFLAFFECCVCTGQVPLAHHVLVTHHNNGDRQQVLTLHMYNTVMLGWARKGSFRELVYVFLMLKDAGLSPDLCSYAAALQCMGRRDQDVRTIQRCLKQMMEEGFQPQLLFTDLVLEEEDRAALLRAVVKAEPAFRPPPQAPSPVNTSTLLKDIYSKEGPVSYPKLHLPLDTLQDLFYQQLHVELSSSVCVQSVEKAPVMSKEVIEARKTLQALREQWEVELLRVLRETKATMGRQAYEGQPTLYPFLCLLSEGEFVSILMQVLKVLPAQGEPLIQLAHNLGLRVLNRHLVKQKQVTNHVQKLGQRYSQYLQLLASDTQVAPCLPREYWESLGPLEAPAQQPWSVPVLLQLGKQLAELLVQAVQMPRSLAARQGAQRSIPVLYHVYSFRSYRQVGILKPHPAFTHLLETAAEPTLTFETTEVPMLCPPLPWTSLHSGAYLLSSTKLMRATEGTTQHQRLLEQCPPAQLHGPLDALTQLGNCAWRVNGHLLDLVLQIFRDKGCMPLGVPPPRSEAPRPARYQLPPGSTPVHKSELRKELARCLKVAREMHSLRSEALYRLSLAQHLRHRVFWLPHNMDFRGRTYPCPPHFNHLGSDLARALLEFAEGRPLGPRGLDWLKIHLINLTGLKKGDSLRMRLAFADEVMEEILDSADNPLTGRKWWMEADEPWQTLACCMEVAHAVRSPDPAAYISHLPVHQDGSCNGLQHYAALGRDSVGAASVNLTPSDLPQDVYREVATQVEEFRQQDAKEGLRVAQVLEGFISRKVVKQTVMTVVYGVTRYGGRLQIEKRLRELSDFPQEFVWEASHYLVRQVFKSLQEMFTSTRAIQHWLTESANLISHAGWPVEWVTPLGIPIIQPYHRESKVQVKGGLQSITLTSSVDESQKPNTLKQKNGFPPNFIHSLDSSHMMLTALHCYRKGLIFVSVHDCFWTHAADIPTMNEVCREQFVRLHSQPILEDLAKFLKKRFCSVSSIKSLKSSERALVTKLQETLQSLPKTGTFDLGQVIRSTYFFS

Regarding `C[C@@H](Oc1ccc2c(-c3ccc(F)cc3Cl)cc(=O)oc2c1)C(=O)N1CCC[C@H](CC(=O)O)C1` [Compound 106, 2-[(3R)-1-[(2R)-2-[4-(2-chloro-4-fluoro-phenyl)-2-oxo-chromen-7-yl]oxypropanoyl]-3-piperidyl]acetic acid], the IC50 in test [1] is less than 0.01 µM; in test [2], less than 0.02 µM.
For `C[C@@H](Oc1ccc2c(-c3ccc(F)cc3Cl)cc(=O)oc2c1)C(=O)N1CCC[C@@H](CC(=O)O)C1` [Compound 107, 2-[(3S)-1-[(2R)-2-[4-(2-chloro-4-fluoro-phenyl)-2-oxo-chromen-7-yl]oxypropanoyl]-3-piperidyl]acetic acid] the same measures were less than 0.01 µM and less than 0.02 µM.
The corresponding values for `CCC(Oc1ccc2c(-c3ccccc3Cl)cc(=O)oc2c1)C(=O)N1CCC[C@H](C(=O)O)C1` (stereo partly drawn) [Compound 110, (3S)-1-[2-[4-(2-chlorophenyl)-2-oxo-chromen-7-yl]oxybutanoyl]piperidine-3-carboxylic acid] are less than 0.01 µM and less than 0.02 µM.
For the molecule `CCOC(=O)[C@H]1CCCN(C(=O)[C@@H](C)Oc2ccc3c(-c4ccc(F)cc4Cl)cc(=O)oc3c2)C1` [Compound 111, ethyl (3S)-1-[(2R)-2-[4-(2-chloro-4-fluoro-phenyl)-2-oxo-chromen-7-yl]oxypropanoyl] piperidine-3-carboxylate], the IC50 in test [1] is 0.05 to 0.5 µM; in test [2], 0.02 to 0.1 µM.
`CC(C)NC(=O)C(C)(C)Oc1ccc2c(-c3ccccc3Cl)cc(=O)oc2c1` [Compound 114, 2-[4-(2-chlorophenyl)-2-oxo-chromen-7-yl]oxy-N-isopropyl-2-methyl-propanamide]: the IC50 in test [1] was in the range of 0.01 to 0.05 µM; in test [2] it was 0.1 to 1 µM.
`Cc1ccccc1-c1cc(=O)oc2cc(OC(C)(C)C(=O)NC(C)C)ccc12` [Compound 115, N-isopropyl-2-methyl-2-[4-(o-tolyl)-2-oxo-chromen-7-yl]oxy-propanamide]: the IC50 in test [1] was 0.01 to 0.05 µM; in test [2], 0.1 to 1 µM.
Regarding `CC(C)(Oc1ccc2c(-c3ccccc3Cl)cc(=O)oc2c1)C(=O)N1CCC[C@H](C(=O)O)C1` [Compound 116, (3S)-1-[2-[4-(2-chlorophenyl)-2-oxo-chromen-7-yl]oxy-2-methyl-propanoyl]piperidine-3-carboxylic acid], the values for the IC50 in test [1] and in test [2] were 0.5 to 5 µM and 0.1 to 1 µM, respectively.
As for `CC(C)OC(=O)[C@H]1CCCN(C(=O)[C@@H](C)Oc2ccc3c(-c4ccc(F)cc4Cl)cc(=O)oc3c2)C1` [Compound 117, isopropyl (3S)-1-[(2R)-2-[4-(2-chloro-4-fluoro-phenyl)-2-oxo-chromen-7-yl]oxypropanoyl] piperidine-3-carboxylate], the values for the IC50 in test [1] and in test [2] were 0.05 to 0.5 µM and 0.02 to 0.1 µM, respectively.
For `C[C@@H](Oc1ccc2c(-c3ccc(F)cc3Cl)cc(=O)oc2c1)C(=O)N1CCC[C@H](C(=O)OC(C)(C)C)C1` [Compound 118, tert-butyl (3S)-1-[(2R)-2-[4-(2-chloro-4-fluoro-phenyl)-2-oxo-chromen-7-yl]oxypropanoyl] piperidine-3-carboxylate], the IC50 in test [1] fell in the range of 0.05 to 0.5 µM; in test [2], 0.02 to 0.1 µM.
Take `CCCCCCCOC(=O)[C@H]1CCCN(C(=O)[C@@H](C)Oc2ccc3c(-c4ccc(F)cc4Cl)cc(=O)oc3c2)C1` [Compound 120, heptyl (3S)-1-[(2R)-2-[4-(2-chloro-4-fluoro-phenyl)-2-oxo-chromen-7-yl]oxypropanoyl] piperidine-3-carboxylate]: the IC50 is less than 0.01 µM in test [1] and 0.1 to 1 µM in test [2].
As for `CC(C)OC(=O)OCOC(=O)[C@H]1CCCN(C(=O)[C@@H](C)Oc2ccc3c(-c4ccc(F)cc4Cl)cc(=O)oc3c2)C1` [Compound 121, (S)-((isopropoxycarbonyl)oxy)methyl 1-((R)-2-((4-(2-chloro-4-fluorophenyl)-2-oxo-2H-chromen-7-yl)oxy)propanoyl)piperidine-3-carboxylate], the IC50 in test [1] is less than 0.01 µM; in test [2], 0.02 to 0.1 µM.
Take `CNC(=O)[C@H]1CCCN(C(=O)[C@@H](C)Oc2ccc3c(-c4ccc(F)cc4Cl)cc(=O)oc3c2)C1` [Compound 122]: the IC50 in test [1] is less than 0.01 µM; in test [2], 0.02 to 0.1 µM.
For `CC(C)OC(=O)C[C@H]1CCCN(C(=O)[C@@H](C)Oc2ccc3c(-c4ccc(F)cc4Cl)cc(=O)oc3c2)C1` [Compound 123, isopropyl 2-[(3R)-1-[(2R)-2-[4-(2-chloro-4-fluoro-phenyl)-2-oxo-chromen-7-yl]oxypropanoyl]-3-piperidyl]acetate] the same measures were less than 0.01 µM and 0.02 to 0.1 µM.
Regarding `C[C@@H](Oc1ccc2c(-c3ccc(F)cc3Cl)cc(=O)oc2c1)C(=O)N1CCC[C@H](CC(=O)OC(C)(C)C)C1` [Compound 124, tert-butyl 2-[(3R)-1-[(2R)-2-[4-(2-chloro-4-fluoro-phenyl)-2-oxo-chromen-7-yl]oxypropanoyl]-3-piperidyl]acetate], the figures for the IC50 in test [1] and in test [2] were less than 0.01 µM and 0.02 to 0.1 µM, respectively.
`C[C@@H](Oc1ccc2c(-c3ccc(F)cc3Cl)cc(=O)oc2c1)C(=O)N1CCC[C@H](CC(=O)OCCN2CCOCC2)C1` [Compound 125]: the 50% inhibitory concentration (IC50) is less than 0.01 µM in test [1] and less than 0.02 µM in test [2].
Take `CCCCCCCOC(=O)C[C@H]1CCCN(C(=O)[C@@H](C)Oc2ccc3c(-c4ccc(F)cc4Cl)cc(=O)oc3c2)C1` [Compound 126, heptyl 2-[(3R)-1-[(2R)-2-[4-(2-chloro-4-fluoro-phenyl)-2-oxo-chromen-7-yl]oxypropanoyl]-3-piperidyl]acetate]: the figures for the 50% inhibitory concentration (IC50) in test [1] and in test [2] were less than 0.01 µM and 0.1 to 1 µM, respectively.
As to `CC(C)OC(=O)OCOC(=O)C[C@H]1CCCN(C(=O)[C@@H](C)Oc2ccc3c(-c4ccc(F)cc4Cl)cc(=O)oc3c2)C1` [Compound 127, isopropoxycarbonyloxymethyl 2-[(3R)-1-[(2R)-2-[4-(2-chloro-4-fluoro-phenyl)-2-oxo-chromen-7-yl]oxypropanoyl]-3-piperidyl]acetate], the IC50 in test [1] is less than 0.01 µM; in test [2] it was 0.02 to 0.1 µM.
For `CNC(=O)C[C@H]1CCCN(C(=O)[C@@H](C)Oc2ccc3c(-c4ccc(F)cc4Cl)cc(=O)oc3c2)C1` [Compound 128, 2-[(3R)-1-[(2R)-2-[4-(2-chloro-4-fluoro-phenyl)-2-oxo-chromen-7-yl]oxypropanoyl]-3-piperidyl]-N-methyl-acetamide], the concentration for half-maximal inhibition (IC50) in test [1] was less than 0.01 µM; in test [2] it was less than 0.02 µM.
In the case of `COC(=O)[C@H]1CN(C(=O)[C@@H](C)Oc2ccc3c(-c4ccc(F)cc4Cl)cc(=O)oc3c2)CCN1` [Compound 136, methyl (2R)-4-[(2R)-2-[4-(2-chloro-4-fluoro-phenyl)-2-oxo-chromen-7-yl]oxypropanoyl]piperazine-2-carboxylate], the IC50 in test [1] lay within 0.01 to 0.05 µM; in test [2] it was 0.02 to 0.1 µM.
The corresponding values for `C[C@@H](Oc1ccc2c(-c3ccc(F)cc3Cl)cc(=O)oc2c1)C(=O)Nc1cccc(C(=O)O)c1` [Compound 139, 3-[[(2R)-2-[4-(2-chloro-4-fluoro-phenyl)-2-oxo-chromen-7-yl]oxypropanoyl]amino]benzoic acid] are 0.05 to 0.5 µM and less than 0.02 µM.
For `C[C@@H](Oc1ccc2c(-c3ccc(F)cc3Cl)cc(=O)oc2c1)C(=O)Nc1ccc(C(=O)O)cc1` [Compound 141, 4-[[(2R)-2-[4-(2-chloro-4-fluoro-phenyl)-2-oxo-chromen-7-yl]oxypropanoyl]amino]benzoic acid], the IC50 is 0.05 to 0.5 µM in test [1] and less than 0.02 µM in test [2].
In the case of `C[C@@H](Oc1ccc2c(-c3ccc(F)cc3Cl)cc(=O)oc2c1)C(=O)N1CC[C@H](CC(=O)O)C1` [Compound 145, 2-[(3R)-1-[(2R)-2-[4-(2-chloro-4-fluoro-phenyl)-2-oxo-chromen-7-yl]oxypropanoyl]pyrrolidin-3-yl]acetic acid], the results for the IC50 in test [1] and in test [2] were less than 0.01 µM and 0.02 to 0.1 µM, respectively.
As to `C[C@@H](Oc1ccc2c(-c3ccc(F)cc3Cl)cc(=O)oc2c1)C(=O)N1CC[C@@H](CC(=O)O)C1` [Compound 147, 2-[(3S)-1-[(2R)-2-[4-(2-chloro-4-fluoro-phenyl)-2-oxo-chromen-7-yl]oxypropanoyl]pyrrolidin-3-yl]acetic acid], the figures for the IC50 in test [1] and in test [2] were 0.01 to 0.05 µM and less than 0.02 µM, respectively.
Take `COC(=O)c1cccc(NC(=O)[C@@H](C)Oc2ccc3c(-c4ccc(F)cc4Cl)cc(=O)oc3c2)n1` [Compound 149, methyl 6-[[(2R)-2-[4-(2-chloro-4-fluoro-phenyl)-2-oxo-chromen-7-yl]oxypropanoyl]amino]pyridine-2-carboxylate]: the IC50 was 0.05 to 0.5 µM in test [1] and 0.02 to 0.1 µM in test [2].
